Experimental data as given in the NIST ThermoML archive (doi:10.1016/j.fluid.2005.07.017).

Assay: xn = mol fraction of the nth substance listed
Conditions: Liquid, Vibrating tube method

c1ccsc1 [thiophene] + O=C=O
Conditions	mass density [kg/m3]
293.15 K, 101 kPa, x2 = 0	1063.59
303.15 K, 101 kPa, x2 = 0	1051.55
313.06 K, 7053 kPa, x2 = 0.5661	983.33
313.06 K, 8092 kPa, x2 = 0.5661	985.63
313.06 K, 8911 kPa, x2 = 0.5661	987.46
313.06 K, 10009 kPa, x2 = 0.5661	989.71
313.06 K, 11009 kPa, x2 = 0.5661	991.78
313.06 K, 11980 kPa, x2 = 0.5661	993.76
313.06 K, 13003 kPa, x2 = 0.5661	995.81
313.06 K, 13999 kPa, x2 = 0.5661	997.77
313.06 K, 15006 kPa, x2 = 0.5661	999.68
313.06 K, 15996 kPa, x2 = 0.5661	1001.53
313.06 K, 17015 kPa, x2 = 0.5661	1003.44
313.06 K, 17998 kPa, x2 = 0.5661	1005.25
313.06 K, 19007 kPa, x2 = 0.5661	1007.09
313.07 K, 4997 kPa, x2 = 0.199	1030.05
313.07 K, 6011 kPa, x2 = 0.199	1031.17
313.07 K, 7011 kPa, x2 = 0.199	1032.32
313.07 K, 8006 kPa, x2 = 0.199	1033.43
313.07 K, 9032 kPa, x2 = 0.199	1034.56
313.07 K, 10022 kPa, x2 = 0.199	1035.65
313.07 K, 11026 kPa, x2 = 0.199	1036.74
313.07 K, 12001 kPa, x2 = 0.199	1037.83
313.07 K, 13018 kPa, x2 = 0.199	1038.9
313.07 K, 13993 kPa, x2 = 0.199	1039.92
313.07 K, 14989 kPa, x2 = 0.199	1040.95
313.07 K, 16012 kPa, x2 = 0.199	1042.03
313.07 K, 17005 kPa, x2 = 0.199	1043.03
313.07 K, 18003 kPa, x2 = 0.199	1044.05
313.07 K, 19065 kPa, x2 = 0.199	1045.15
313.09 K, 1029 kPa, x2 = 0	1040.96
313.09 K, 1969 kPa, x2 = 0	1041.84
313.09 K, 2970 kPa, x2 = 0	1042.78
313.09 K, 3987 kPa, x2 = 0	1043.71
313.09 K, 5055 kPa, x2 = 0	1044.72
313.09 K, 5952 kPa, x2 = 0	1045.51
313.09 K, 6937 kPa, x2 = 0	1046.43
313.09 K, 8032 kPa, x2 = 0	1047.39
313.09 K, 9218 kPa, x2 = 0	1048.44
313.09 K, 10045 kPa, x2 = 0	1049.18
313.09 K, 11012 kPa, x2 = 0	1050.03
313.09 K, 12014 kPa, x2 = 0	1050.9
313.09 K, 12995 kPa, x2 = 0	1051.74
313.09 K, 13961 kPa, x2 = 0	1052.59
313.09 K, 14970 kPa, x2 = 0	1053.43
313.09 K, 15953 kPa, x2 = 0	1054.26
313.09 K, 17004 kPa, x2 = 0	1055.16
313.09 K, 18003 kPa, x2 = 0	1055.95
313.09 K, 18904 kPa, x2 = 0	1056.76
313.13 K, 9091 kPa, x2 = 0.9217	798.81
313.13 K, 10071 kPa, x2 = 0.9217	813.05
313.13 K, 11026 kPa, x2 = 0.9217	824.67
313.13 K, 12059 kPa, x2 = 0.9217	836.13
313.13 K, 13037 kPa, x2 = 0.9217	845.52
313.13 K, 14012 kPa, x2 = 0.9217	854.21
313.13 K, 15001 kPa, x2 = 0.9217	862.38
313.13 K, 16014 kPa, x2 = 0.9217	870.06
313.13 K, 17035 kPa, x2 = 0.9217	877.41
313.13 K, 18056 kPa, x2 = 0.9217	884.26
313.13 K, 19024 kPa, x2 = 0.9217	890.25
313.13 K, 19849 kPa, x2 = 0.9217	895.22
313.13 K, 20858 kPa, x2 = 0.9217	901.01
313.13 K, 21968 kPa, x2 = 0.9217	907.04
313.13 K, 23020 kPa, x2 = 0.9217	912.42
313.13 K, 24013 kPa, x2 = 0.9217	917.38
313.13 K, 25004 kPa, x2 = 0.9217	921.98
313.14 K, 5783 kPa, x2 = 0.3818	1008.02
313.14 K, 6953 kPa, x2 = 0.3818	1010.44
313.14 K, 7991 kPa, x2 = 0.6996	974.06
313.14 K, 8014 kPa, x2 = 0.3818	1012.13
313.14 K, 9021 kPa, x2 = 0.3818	1013.7
313.14 K, 9112 kPa, x2 = 0.6996	977.19
313.14 K, 9872 kPa, x2 = 0.6996	979.01
313.14 K, 9948 kPa, x2 = 0.3818	1015.07
313.14 K, 10945 kPa, x2 = 0.3818	1016.6
313.14 K, 10946 kPa, x2 = 0.6996	981.56
313.14 K, 11951 kPa, x2 = 0.6996	983.92
313.14 K, 12015 kPa, x2 = 0.3818	1018.22
313.14 K, 13025 kPa, x2 = 0.3818	1019.65
313.14 K, 13033 kPa, x2 = 0.6996	986.45
313.14 K, 13973 kPa, x2 = 0.3818	1021.04
313.14 K, 13991 kPa, x2 = 0.6996	988.63
313.14 K, 14931 kPa, x2 = 0.6996	990.71
313.14 K, 15006 kPa, x2 = 0.3818	1022.52
313.14 K, 15988 kPa, x2 = 0.6996	993.02
313.14 K, 15992 kPa, x2 = 0.3818	1023.89
313.14 K, 16994 kPa, x2 = 0.6996	995.2
313.14 K, 17012 kPa, x2 = 0.3818	1025.32
313.14 K, 18022 kPa, x2 = 0.6996	997.41
313.14 K, 18039 kPa, x2 = 0.3818	1026.72
313.14 K, 18908 kPa, x2 = 0.3818	1027.86
313.15 K, 101 kPa, x2 = 0	1039.32
322.95 K, 5076 kPa, x2 = 0.199	1016.5
322.95 K, 6015 kPa, x2 = 0.199	1017.63
322.95 K, 7042 kPa, x2 = 0.199	1018.88
322.95 K, 8054 kPa, x2 = 0.199	1020.1
322.95 K, 9012 kPa, x2 = 0.199	1021.25
322.95 K, 9975 kPa, x2 = 0.199	1022.38
322.95 K, 11019 kPa, x2 = 0.199	1023.61
322.95 K, 12001 kPa, x2 = 0.199	1024.72
322.95 K, 12978 kPa, x2 = 0.199	1025.86
322.95 K, 14026 kPa, x2 = 0.199	1027.05
322.95 K, 15010 kPa, x2 = 0.199	1028.15
322.95 K, 16019 kPa, x2 = 0.199	1029.28
322.95 K, 17005 kPa, x2 = 0.199	1030.36
322.95 K, 18005 kPa, x2 = 0.199	1031.46
